Measured values published in US8217035B2, “Pyrimidine derivatives used as PI-3-kinase inhibitors” (Novartis AG, priority 2006, dated 2012).

Assays:
[1] = target: PI3 kinase alpha (Homo sapiens, UniProt P42336); test: PI3K ATP depletion assay (Biological Method 1, Assay 3; KinaseGlo luminescence); type: biochemical; settings: ATP depletion assay, Biological Method 1; read-out: PI3 Kinase Alpha, IC50
Procedure: The PI3 kinase alpha IC50 values shown in Table 1 were determined according to the ATP depletion assay as disclosed herein in Biological Method 1.
Assay 3: ATP Depletion Assay
Compounds to be tested are dissolved in DMSO and directly distributed into a black 384-well plate at 1.25 μL per well. To start the reaction, 25 μL of 10 nM PI3 kinase and 5 μg/mL 1-alpha-phosphatidylinositol (PI) are added into each well followed by 25 μL of 2 μM ATP. The reaction is performed until approx 50% of the ATP is depleted, and then stopped by the addition of 25 μL of KinaseGlo solution purchased from Promega. The stopped reaction is incubated for 5 minutes and the remaining ATP is then detected via luminescence.

[2] = tested on: A2780 ovarian cancer cells; test: Cellular proliferation in A2780 cells, Cell Titer Glo (Biological Method 4); type: cell-based; settings: Homo sapiens; ovarian cancer cell line A2780, Biological Method 4
Procedure: In addition, many of the compounds of Table 1 were tested to determine their inhibitory activity in a cellular proliferation assay according to Biological Method 4.
The ability of the compounds of the invention to inhibit cellular proliferation were determined by using Cell Titer Glo, a commercially available assay from Promega Corporation. A2780 ovarian cancer cells were seeded in TC treated 96-well plates at a density of 1,000 per well in DMEM, 10% FBS, 1% Sodium Pyruvate, and 1% Penicillin Streptomycin for a minimum of 2 hrs prior to addition of compound. For each concentration of test compound, 2 μl (500×) aliquots of compound or 100% DMSO diluted in 500 μl of culture medium for 2× concentration then diluted 1× on the Cells. Cells were incubated for 72 hrs at 37° C., 5% CO2. After the 72 hour incubation, Cell Titer Glo reagent is added to determine number of viable cells remaining after exposure to the compound, and the EC50 value was calculated. The assay was performed according to the manufacturer's instruction (Promega Corporation, Madison, Wis. USA). Each experimental condition was performed in duplicate.

PI3 kinase alpha, sequence (P42336 whole entry): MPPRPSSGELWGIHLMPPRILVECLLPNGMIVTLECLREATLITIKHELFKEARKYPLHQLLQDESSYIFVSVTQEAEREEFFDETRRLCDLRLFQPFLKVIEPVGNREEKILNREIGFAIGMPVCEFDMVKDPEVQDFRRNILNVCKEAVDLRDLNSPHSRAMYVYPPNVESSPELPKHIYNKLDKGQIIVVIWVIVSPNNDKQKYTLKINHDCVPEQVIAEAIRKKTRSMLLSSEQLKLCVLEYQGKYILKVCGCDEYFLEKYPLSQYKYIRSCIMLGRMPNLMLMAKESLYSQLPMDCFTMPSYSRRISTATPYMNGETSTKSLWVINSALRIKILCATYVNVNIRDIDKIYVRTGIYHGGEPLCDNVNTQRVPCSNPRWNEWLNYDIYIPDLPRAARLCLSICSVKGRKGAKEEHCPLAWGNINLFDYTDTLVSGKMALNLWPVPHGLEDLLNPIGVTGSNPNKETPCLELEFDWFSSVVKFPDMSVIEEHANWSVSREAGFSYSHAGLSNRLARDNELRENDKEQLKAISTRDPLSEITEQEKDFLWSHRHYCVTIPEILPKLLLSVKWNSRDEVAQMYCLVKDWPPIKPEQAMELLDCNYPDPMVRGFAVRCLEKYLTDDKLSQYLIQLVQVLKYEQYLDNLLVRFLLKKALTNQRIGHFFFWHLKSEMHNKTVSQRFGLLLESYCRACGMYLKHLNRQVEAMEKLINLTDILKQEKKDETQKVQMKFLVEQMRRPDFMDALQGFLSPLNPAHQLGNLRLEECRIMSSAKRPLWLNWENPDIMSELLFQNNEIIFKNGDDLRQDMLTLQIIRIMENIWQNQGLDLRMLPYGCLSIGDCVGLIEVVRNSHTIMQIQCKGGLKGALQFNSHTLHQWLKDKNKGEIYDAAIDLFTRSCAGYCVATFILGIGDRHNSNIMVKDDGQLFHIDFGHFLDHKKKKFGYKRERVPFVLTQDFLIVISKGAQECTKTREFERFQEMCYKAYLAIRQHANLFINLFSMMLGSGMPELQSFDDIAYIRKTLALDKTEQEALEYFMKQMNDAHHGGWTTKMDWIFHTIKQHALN
PI3 kinase alpha, sequence (P27986 whole entry partner): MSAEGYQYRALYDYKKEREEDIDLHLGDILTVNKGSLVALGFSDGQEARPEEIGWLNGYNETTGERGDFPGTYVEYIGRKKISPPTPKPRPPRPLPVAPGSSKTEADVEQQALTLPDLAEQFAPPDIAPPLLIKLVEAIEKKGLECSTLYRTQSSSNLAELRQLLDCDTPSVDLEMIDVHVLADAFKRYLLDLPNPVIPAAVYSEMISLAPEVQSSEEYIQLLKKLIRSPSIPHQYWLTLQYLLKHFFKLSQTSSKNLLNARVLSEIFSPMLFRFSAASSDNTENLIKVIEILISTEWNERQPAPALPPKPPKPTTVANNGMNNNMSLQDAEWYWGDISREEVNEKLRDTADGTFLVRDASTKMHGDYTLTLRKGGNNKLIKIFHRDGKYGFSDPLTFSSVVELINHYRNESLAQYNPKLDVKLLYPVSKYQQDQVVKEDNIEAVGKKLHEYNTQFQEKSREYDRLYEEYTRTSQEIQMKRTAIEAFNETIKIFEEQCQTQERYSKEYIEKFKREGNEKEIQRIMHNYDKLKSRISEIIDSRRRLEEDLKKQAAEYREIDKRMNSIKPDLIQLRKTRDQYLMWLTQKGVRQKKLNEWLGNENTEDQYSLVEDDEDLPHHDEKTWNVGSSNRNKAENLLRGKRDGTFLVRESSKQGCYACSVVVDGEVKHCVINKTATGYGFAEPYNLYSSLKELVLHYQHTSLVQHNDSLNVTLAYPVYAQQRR

| Compound | IC50 [1] | EC50 [2] |
| --- | --- | --- |
| CC(=O)N1CCC(Oc2ccc(Nc3cc(-c4cnc(N)cc4C(F)(F)F)nc(N4CCOCC4)n3)cn2)CC1 [Compound 262] | < 1 µM | < 10 µM |
| Nc1cc(C(F)(F)F)c(-c2cc(-c3cncc(CN4CCCCC4)c3)nc(N3CCOCC3)n2)cn1 [Compound 263] | < 1 µM | < 10 µM |
| Nc1cc(C(F)(F)F)c(-c2cc(-c3cncc(CN4CCCC4)c3)nc(N3CCOCC3)n2)cn1 [Compound 264] | < 1 µM | < 10 µM |
| Nc1cc(C(F)(F)F)c(-c2cc(-c3cncc(S(=O)(=O)CCO)c3)nc(N3CCOCC3)n2)cn1 [Compound 265] | < 1 µM | < 10 µM |
| CS(=O)(=O)c1cncc(-c2cc(-c3cnc(N)cc3C(F)(F)F)nc(N3CCOCC3)n2)c1 [Compound 266] | < 1 µM | < 10 µM |
| Nc1cc(C(F)(F)F)c(-c2cc(Nc3ccc(OC4CCOCC4)nc3)nc(N3CCOCC3)n2)cn1 [Compound 267] | < 1 µM | < 10 µM |
| Nc1cc(C(F)(F)F)c(-c2cc(Nc3ccc(OC4CCOC4)nc3)nc(N3CCOCC3)n2)cn1 (centres unmarked) [Compound 268] | < 1 µM | < 10 µM |
| CN(C)CCOc1ccc(Nc2cc(-c3cnc(N)cc3C(F)(F)F)nc(N3CCOCC3)n2)cn1 [Compound 269] | < 1 µM | < 10 µM |
| Cc1c(-c2cnc(N)nc2)nc(N2CCOCC2)nc1-c1cncc(OCCN(C)C)c1 [Compound 270] | < 1 µM | < 25 µM |
| Nc1ccc(-c2cc(Nc3ccc(OC(CO)CO)nc3)nc(N3CCOCC3)n2)cn1 [Compound 271] | < 1 µM | < 25 µM |
| CN1CCN(Cc2cncc(-c3cc(-c4ccc(N)nc4)nc(N4CCOCC4)n3)c2)CC1 [Compound 273] | < 1 µM | < 10 µM |
| Nc1ncc(-c2cc(-c3cncc(O)c3)nc(N3CCOCC3)n2)cn1 [Compound 274] | < 1 µM | < 1 µM |
| COc1cncc(-c2cc(-c3ccc(N)nc3)nc(N3CCOCC3)n2)c1 [Compound 275] | < 1 µM | < 1 µM |
| CN1CCC(Oc2ccc(Nc3cc(-c4ccc(N)nc4)nc(N4CCOCC4)n3)cn2)CC1 [Compound 276] | < 1 µM | < 10 µM |
| CN1CCC(Oc2ccc(-c3cc(-c4cnc(N)nc4)nc(N4CCOCC4)n3)cn2)CC1 [Compound 277] | < 1 µM | < 10 µM |
| Nc1ncc(-c2cc(-c3ccc(F)nc3)nc(N3CCOCC3)n2)cn1 [Compound 278] | < 1 µM | < 10 µM |
| Nc1ncc(-c2cc(-c3cnc(N)nc3)nc(N3CCOCC3)n2)cn1 [Compound 279] | < 1 µM | < 10 µM |
| Nc1ncc(-c2cc(-c3cccc4ncccc34)nc(N3CCOCC3)n2)cn1 [Compound 280] | < 1 µM | < 10 µM |
| Nc1cc(C(F)(F)F)c(-c2cc(Nc3ccc(-c4nn[nH]n4)cc3)nc(N3CCOCC3)n2)cn1 [Compound 281] | < 1 µM | < 25 µM |
| Nc1cc(C(F)(F)F)c(-c2cc(Nc3ccc(-c4nn[nH]n4)nc3)nc(N3CCOCC3)n2)cn1 [Compound 282] | < 1 µM | < 25 µM |

| Compound | IC50 [1] | EC50 [2] |
| --- | --- | --- |
| N#Cc1ccc(Nc2cc(-c3cnc(N)cc3C(F)(F)F)nc(N3CCOCC3)n2)cc1 [Compound 283] | < 1 µM | < 10 µM |
| N#Cc1ccc(Nc2cc(-c3cnc(N)cc3C(F)(F)F)nc(N3CCOCC3)n2)cn1 [Compound 284] | < 1 µM | < 10 µM |
| COc1nc2ccccc2cc1Nc1cc(-c2ccc(N)nc2)nc(N2CCOCC2)n1 [Compound 287] | < 1 µM | < 10 µM |
| CN1CCC(C(=O)Nc2cc(-c3cnc(N)nc3)nc(N3CCOCC3)n2)CC1 [Compound 289] | < 1 µM | < 10 µM |
| Nc1ncc(-c2cc(NC(=O)[C@@H]3CCCO3)nc(N3CCOCC3)n2)cn1 [Compound 290] | < 1 µM | < 10 µM |
| Nc1ncc(-c2cc(NC(=O)Cc3cccnc3)nc(N3CCOCC3)n2)cn1 [Compound 291] | < 1 µM | < 25 µM |
| Nc1ccc(-c2cc(Sc3ccncc3)nc(N3CCOCC3)n2)cn1 [Compound 294] | < 1 µM | < 10 µM |
| Nc1ccc(-c2cc(Sc3ccccn3)nc(N3CCOCC3)n2)cn1 [Compound 295] | < 1 µM | < 10 µM |
| Nc1ccc(-c2cc(Nc3ccc(N4CCNCC4)nc3)nc(N3CCOCC3)n2)cn1 [Compound 299] | < 1 µM | < 10 µM |
| CN1CCN(c2ccc(Nc3cc(-c4ccc(N)nc4)nc(N4CCOCC4)n3)cn2)CC1 [Compound 300] | < 1 µM | < 10 µM |
| Nc1cc(-c2cnc(N)nc2)nc(N2CCOCC2)n1 [Compound 301] | < 1 µM | < 25 µM |
| COc1ccc(CCNc2cc(-c3ccc(N)nc3)nc(N3CCOCC3)n2)cc1 [Compound 302] | < 10 µM | < 25 µM |
| COc1cccc(CCNc2cc(-c3ccc(N)nc3)nc(N3CCOCC3)n2)c1 [Compound 303] | < 1 µM | < 10 µM |
| COc1ccccc1CCNc1cc(-c2ccc(N)nc2)nc(N2CCOCC2)n1 [Compound 304] | < 1 µM | < 25 µM |
| Nc1ccc(-c2cc(Nc3ccc(F)cc3)nc(N3CCOCC3)n2)cn1 [Compound 305] | < 1 µM | < 10 µM |
| COc1ccccc1Nc1cc(-c2cnc(N)nc2)nc(N2CCOCC2)n1 [Compound 306] | < 1 µM | < 10 µM |
| N#Cc1cccc(Nc2cc(-c3cnc(N)nc3)nc(N3CCOCC3)n2)c1 [Compound 307] | < 1 µM | < 10 µM |
| COc1cccc(Nc2cc(-c3cnc(N)nc3)nc(N3CCOCC3)n2)c1 [Compound 308] | < 1 µM | < 10 µM |
| COc1cc2cc(Nc3cc(-c4ccc(N)nc4)nc(N4CCOCC4)n3)cnc2cc1OC [Compound 311] | < 1 µM | < 1 µM |
| Nc1cc(C(F)(F)F)c(-c2nc(N3CCOCC3)nc(N3CCOCC3)c2F)cn1 [Compound 313] | < 1 µM | < 25 µM |

| Compound | IC50 [1] | EC50 [2] |
| --- | --- | --- |
| Nc1cc(C(F)(F)F)c(-c2cc(Nc3cccc(CN4CCOCC4)c3)nc(N3CCOCC3)n2)cn1 [Compound 314] | < 1 µM | < 25 µM |
| CN1CCN(S(=O)(=O)c2cccc(Nc3cc(-c4cnc(N)cc4C(F)(F)F)nc(N4CCOCC4)n3)c2)CC1 [Compound 315] | < 1 µM | < 10 µM |
| Nc1cc(C(F)(F)F)c(-c2cc(Nc3cccc(S(=O)(=O)N4CCOCC4)c3)nc(N3CCOCC3)n2)cn1 [Compound 316] | < 1 µM | < 10 µM |
| N#Cc1cc(N)ncc1-c1cc(-c2cnc(N)cc2C#N)nc(N2CCOCC2)n1 [Compound 317] | < 1 µM | < 10 µM |
| Nc1cc(C(F)(F)F)c(-c2cc(Nc3cccc(S(=O)(=O)CCO)c3)nc(N3CCOCC3)n2)cn1 [Compound 318] | < 1 µM | < 10 µM |
| NC(=O)C1CN(c2cc(-c3cnc(N)cc3C(F)(F)F)nc(N3CCOCC3)n2)CCO1 (centres unmarked) [Compound 320] | < 1 µM | < 10 µM |
| Nc1ncc(-c2cc(NC3CCOCC3)nc(N3CCOCC3)n2)c(C(F)(F)F)n1 [Compound 321] | < 1 µM | < 10 µM |
| Nc1cc(C(F)(F)F)c(-c2cc(NC3CCOCC3)nc(N3CCOCC3)n2)cn1 [Compound 322] | < 1 µM | < 25 µM |
| Nc1cc(C(F)(F)F)c(-c2cc(N3CCC(O)CC3)nc(N3CCOCC3)n2)cn1 [Compound 323] | < 1 µM | < 25 µM |
| Nc1cc(C(F)(F)F)c(-c2cc(N3CCC(=O)CC3)nc(N3CCOCC3)n2)cn1 [Compound 324] | < 1 µM | < 10 µM |
| Nc1cc(C(F)(F)F)c(-c2cc(N3CCOC(C(=O)N4CCOCC4)C3)nc(N3CCOCC3)n2)cn1 (centres unmarked) [Compound 325] | < 1 µM | < 25 µM |
| CN(C)C(=O)C1CN(c2cc(-c3cnc(N)cc3C(F)(F)F)nc(N3CCOCC3)n2)CCO1 (centres unmarked) [Compound 326] | < 1 µM | < 25 µM |
| C[C@@H]1CN(c2cc(-c3cnc(N)cc3C(F)(F)F)nc(N3CCOCC3)n2)C[C@H](C)O1 [Compound 327] | < 1 µM | < 10 µM |
| Nc1cc(Cl)c(-c2cc(OC3CCOCC3)nc(N3CCOCC3)n2)cn1 [Compound 328] | < 1 µM | < 25 µM |
| Nc1cc(C(F)(F)F)c(-c2cc(N3CCOC(C(=O)NC4CCOCC4)C3)nc(N3CCOCC3)n2)cn1 (centres unmarked) [Compound 329] | < 1 µM | < 25 µM |
| CC(C)NC(=O)C1CN(c2cc(-c3cnc(N)cc3C(F)(F)F)nc(N3CCOCC3)n2)CCO1 (centres unmarked) [Compound 330] | < 1 µM | < 25 µM |
| Nc1cc(C(F)(F)F)c(-c2cc(N3CCS(=O)(=O)CC3)nc(N3CCOCC3)n2)cn1 [Compound 331] | < 1 µM | < 25 µM |
| Nc1cc(C(F)(F)F)c(-c2cc(N3CC[C@H](F)C3)nc(N3CCOCC3)n2)cn1 [Compound 332] | < 1 µM | < 1 µM |
